Reference: PubChem BioAssay AID330 (DTP/NCI, 2004)
“And” between values parts separate entries of the source, which are not always exact repeats. Equal values may be shown once. Toxic doses and inconclusive results are not listed.

System: P388 leukemia ip, CD2F1 mice, survival T/C
Test: NCI In Vivo Anticancer Drug Screen. Data for tumor model P388 Leukemia (intraperitoneal) in CD2F1 (CDF1) mice
Conditions: endpoint: median survival time, higher = longer survival
Outline: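 Mice carrying the transplanted tumor received test compound or vehicle. Survival was recorded in each group, and the value is the treated-group measurement divided by that of the vehicle-treated control group.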

In the case of N[C@@H](Cc1ccc(N(CCCl)CCCl)cc1)C(=O)O, the T/C (dose: 0.25 mg/kg/injection, schedule: Q01DX009 (ip), vehicle: saline) is reported as 152 % of control, the T/C (dose: 0.25 mg/kg/injection, schedule: Q01DX009 (ip), vehicle: suspension in saline) is reported as 117 % of control and the T/C (dose: 0.25 mg/kg/injection, schedule: Q03HX008 (ip), vehicle: saline) is reported as 165 % of control. For the same compound, the T/C (dose: 0.38 mg/kg/injection, schedule: Q01DX005 (ip), vehicle: saline) was 154 % of control, the T/C (dose: 0.5 mg/kg/injection, schedule: Q01DX005 (ip), vehicle: saline) was 153 % of control and 189 % of control and the T/C (dose: 0.5 mg/kg/injection, schedule: Q01DX009 (ip), vehicle: saline) was 163 % of control and 170 % of control. The T/C (dose: 0.5 mg/kg/injection, schedule: Q01DX009 (ip), vehicle: suspension in saline) was 123 % of control, the T/C (dose: 0.5 mg/kg/injection, schedule: Q03HX008 (ip), vehicle: saline) was 190 % of control and the T/C (dose: 0.5 mg/kg/injection, schedule: Q04DX003 (ip), vehicle: water) was 150 % of control. For the same compound, the T/C (dose: 0.54 mg/kg/injection, schedule: Q01DX009 (ip), vehicle: saline) was 175 % of control, the T/C (dose: 0.75 mg/kg/injection, schedule: Q01DX005 (ip), vehicle: saline) was 172 % of control and the T/C (dose: 0.75 mg/kg/injection, schedule: Q04DX003 (ip), vehicle: saline) was 150 % of control. The T/C (dose: 0.9 mg/kg/injection, schedule: Q01DX009 (ip), vehicle: saline) was 193 % of control, the T/C (dose: 1.0 mg/kg/injection, schedule: Q01DX005 (ip), vehicle: water) was 167 % of control and the T/C (dose: 1.0 mg/kg/injection, schedule: Q01DX009 (ip), vehicle: Klucel (hydroxypropylcellulose) (HPC)) was 222 % of control. For the same compound, the T/C (dose: 1.0 mg/kg/injection, schedule: Q01DX009 (ip), vehicle: saline) was 193 % of control and 209 % of control and 227 % of control, the T/C (dose: 1.0 mg/kg/injection, schedule: Q01DX009 (ip), vehicle: suspension in saline) was 163 % of control and the T/C (dose: 1.0 mg/kg/injection, schedule: Q04DX003 (ip), vehicle: saline) was 176 % of control. For the same compound, the T/C (dose: 1.0 mg/kg/injection, schedule: Q04DX003 (ip), vehicle: water) was 162 % of control, the T/C (dose: 1.25 mg/kg/injection, schedule: Q04DX003 (ip), vehicle: saline) was 176 % of control and the T/C (dose: 1.25 mg/kg/injection, schedule: Q04DX003 (ip), vehicle: water) was 158 % of control and 200 % of control. For the same compound, the T/C (dose: 1.25 mg/kg/injection, schedule: Q04DX003 (iv), vehicle: saline) was 124 % of control, the T/C (dose: 1.5 mg/kg/injection, schedule: Q01DX005 (ip), vehicle: saline) was 203 % of control and the T/C (dose: 1.5 mg/kg/injection, schedule: Q01DX009 (ip), vehicle: Klucel (hydroxypropylcellulose) (HPC)) was 101 % of control. For the same compound, the T/C (dose: 1.5 mg/kg/injection, schedule: Q01DX009 (ip), vehicle: saline) was 227 % of control, the T/C (dose: 1.5 mg/kg/injection, schedule: Q04DX003 (ip), vehicle: Klucel (hydroxypropylcellulose) (HPC)) was 225 % of control and the T/C (dose: 1.5 mg/kg/injection, schedule: Q04DX003 (ip), vehicle: saline) was 174 % of control. The T/C (dose: 1.62 mg/kg/injection, schedule: Q04DX003 (ip), vehicle: saline) was 180 % of control, the T/C (dose: 1.62 mg/kg/injection, schedule: Q04DX003 (ip), vehicle: water) was 191 % of control and the T/C (dose: 1.7 mg/kg/injection, schedule: Q04DX003 (ip), vehicle: saline) was 174 % of control. For the same compound, the T/C (dose: 1.94 mg/kg/injection, schedule: Q04DX002 (ip), vehicle: saline) was 190 % of control and 192 % of control and 206 % of control, the T/C (dose: 1.94 mg/kg/injection, schedule: Q04DX003 (ip), vehicle: saline) was 186 % of control and the T/C (dose: 2.0 mg/kg/injection, schedule: Q01DX009 (ip), vehicle: saline) was 236 % of control and 254 % of control. For the same compound, the T/C (dose: 2.0 mg/kg/injection, schedule: Q01DX009 (ip), vehicle: suspension in saline) was 174 % of control and 221 % of control, the T/C (dose: 2.0 mg/kg/injection, schedule: Q04DX003 (ip), vehicle: saline) was 196 % of control and 199 % of control and 200 % of control and the T/C (dose: 2.0 mg/kg/injection, schedule: Q04DX003 (ip), vehicle: water) was 189 % of control. For the same compound, the T/C (dose: 2.2 mg/kg/injection, schedule: Q01DX005 (ip), vehicle: saline) was 165 % of control and 203 % of control, the T/C (dose: 2.5 mg/kg/injection, schedule: Q01DX001 (ip), vehicle: Klucel (hydroxypropylcellulose) (HPC)) was 207 % of control and the T/C (dose: 2.7 mg/kg/injection, schedule: Q04DX003 (ip), vehicle: saline) was 194 % of control and 250 % of control. The T/C (dose: 2.7 mg/kg/injection, schedule: Q04DX003 (ip), vehicle: water) was 233 % of control, the T/C (dose: 3.0 mg/kg/injection, schedule: Q04DX003 (ip), vehicle: Klucel (hydroxypropylcellulose) (HPC)) was 119 % of control and the T/C (dose: 3.0 mg/kg/injection, schedule: Q04DX003 (ip), vehicle: saline) was 196 % of control. The T/C (dose: 3.24 mg/kg/injection, schedule: Q04DX002 (ip), vehicle: saline) was 202 % of control and 213 % of control and 243 % of control, the T/C (dose: 3.24 mg/kg/injection, schedule: Q04DX003 (ip), vehicle: saline) was 220 % of control and 227 % of control and the T/C (dose: 3.6 mg/kg/injection, schedule: Q01DX005 (ip), vehicle: saline) was 165 % of control and 233 % of control. For the same compound, the T/C (dose: 3.7 mg/kg/injection, schedule: Q04DX003 (ip), vehicle: saline) was 220 % of control, the T/C (dose: 3.75 mg/kg/injection, schedule: Q04DX003 (ip), vehicle: distilled water + Tween-80) was 215 % of control and the T/C (dose: 4.0 mg/kg/injection, schedule: Q01DX001 (ip), vehicle: suspension in saline) was 183 % of control. For the same compound, the T/C (dose: 4.0 mg/kg/injection, schedule: Q01DX009 (ip), vehicle: Klucel (hydroxypropylcellulose) (HPC)) was 161 % of control, the T/C (dose: 4.0 mg/kg/injection, schedule: Q01DX009 (ip), vehicle: saline) was 166 % of control and the T/C (dose: 4.0 mg/kg/injection, schedule: Q01DX009 (ip), vehicle: suspension in saline) was 169 % of control and 238 % of control. The T/C (dose: 4.0 mg/kg/injection, schedule: Q04DX003 (ip), vehicle: saline) was 199 % of control and 211 % of control and 240 % of control, the T/C (dose: 4.0 mg/kg/injection, schedule: Q04DX003 (ip), vehicle: water) was 225 % of control and the T/C (dose: 4.5 mg/kg/injection, schedule: Q04DX003 (ip), vehicle: saline) was 240 % of control. For the same compound, the T/C (dose: 5.0 mg/kg/injection, schedule: Q01DX001 (ip), vehicle: saline) was 208 % of control, the T/C (dose: 5.0 mg/kg/injection, schedule: Q04DX003 (iv), vehicle: saline) was 194 % of control and the T/C (dose: 5.4 mg/kg/injection, schedule: Q04DX002 (ip), vehicle: saline) was 254 % of control. The T/C (dose: 6.0 mg/kg/injection, schedule: Q01DX005 (ip), vehicle: saline) was 226 % of control, the T/C (dose: 6.0 mg/kg/injection, schedule: Q04DX003 (ip), vehicle: Klucel (hydroxypropylcellulose) (HPC)) was 117 % of control and the T/C (dose: 6.0 mg/kg/injection, schedule: Q04DX003 (ip), vehicle: saline) was 218 % of control. For the same compound, the T/C (dose: 6.7 mg/kg/injection, schedule: Q01DX001 (ip), vehicle: saline) was 185 % of control, the T/C (dose: 7.3 mg/kg/injection, schedule: Q04DX003 (ip), vehicle: saline) was 239 % of control and the T/C (dose: 8.0 mg/kg/injection, schedule: Q01DX009 (ip), vehicle: Klucel (hydroxypropylcellulose) (HPC)) was 109 % of control. The T/C (dose: 8.0 mg/kg/injection, schedule: Q01DX009 (ip), vehicle: saline) was 99 % of control and 100 % of control, the T/C (dose: 8.0 mg/kg/injection, schedule: Q01DX009 (ip), vehicle: suspension in saline) was 104 % of control and 108 % of control and the T/C (dose: 10.0 mg/kg/injection, schedule: Q01DX001 (iv), vehicle: saline) was 185 % of control. For the same compound, the T/C (dose: 10.0 mg/kg/injection, schedule: Q04DX003 (iv), vehicle: saline) was 100 % of control, the T/C (dose: 12.5 mg/kg/injection, schedule: Q04DX003 (ip), vehicle: saline) was 152 % of control and the T/C (dose: 12.6 mg/kg/injection, schedule: Q04DX003 (ip), vehicle: saline) was 239 % of control. For the same compound, the T/C (dose: 15.0 mg/kg/injection, schedule: Q04DX002 (ip), vehicle: saline) was 101 % of control and 109 % of control, the T/C (dose: 15.0 mg/kg/injection, schedule: Q04DX003 (ip), vehicle: saline) was 108 % of control and the T/C (dose: 16.0 mg/kg/injection, schedule: Q04DX003 (ip), vehicle: water) was 115 % of control. The T/C (dose: 17.5 mg/kg/injection, schedule: Q01DX001 (ip), vehicle: saline) was 243 % of control, the T/C (dose: 18.9 mg/kg/injection, schedule: Q04DX003 (ip), vehicle: saline) was 107 % of control and the T/C (dose: 24.0 mg/kg/injection, schedule: Q04DX003 (ip), vehicle: saline) was 107 % of control.
